Test results from patent publication US20160250245A1, “Methods and Pharmaceutical Composition for the Treatment of Polyomavirus Infections” (INSERM (INSTITUT NATIONAL DE LA SANTÉ ET DE LA RECHERCHE …, priority 2013, published 2016).

Key:
BKV (Dunlop strain) = test: BKV replication in RPTEC primary cells, extracellular BKV DNA load by qPCR; format: cell-based, BK virus
Method: (§1) For each assay, one cell aliquot containing 2×10^6 cells was thawed and cells were cultured for six days in one 75 cm^2 culture flask. Cells were then trypsinized, washed, resuspended and seeded at 5×10^4 cells/well in 1 ml medium in flat bottom 24-well collagen-coated microplates. After 48 h incubation, medium was replaced with fresh REBM base medium without grown factors and supplemented with inactivated fetal bovine serum (FBS Brazilian origin, Lonza) and penicillin-streptomycin 10000 U/μg to a final concentration of 2% and 1% respectively. 48 h later, cells at 95% confluence were infected with 1×10^9 genomes per well. After 4 h incubation (37° C., 5% CO2), medium was removed and replaced with 1 ml of fresh medium without grown factors after two washes with and without gemcitabine or cidofovir at the indicated concentrations. 72 h later, at day 3 of treatment, supernatants were harvested and frozen at −80° C. and medium was replaced with fresh medium without grown factors and with the indicated concentrations of gemcitabine or cidofovir. After 48 h incubation, at day 5 of treatment, cell culture supernatants were harvested and frozen at −80° C.
(§2) Extracellular DNA was extracted from 100 μL frozen supernatants using the automated nucleic acids extractor Nuclisens Easymag (BioMérieux, Marcy l'Etoile, France) following the manufacturer's Generic 2.0.1 procedure. Extracts were resuspended in a final volume of 25 μL buffer 3.
(§3) To quantify extracellular BKV DNA load, a quantitative PCR (qPCR) was done using the following primers (Eurofins MWG Operon) and probe (Applied Biosystem, UK): […]
(§4) Reactions were performed in a total volume of 25 μl with 5 μL of DNA extract, […] TaqMan Universal PCR Master Mix (Applied Biosystems, Hoffmann La Roche, Meylan, France), 6.5 μL H2O, 2.5 μL of each primer at 30 μM and 1 μL of probe at 10 μM.
(§5) Amplification was performed using the Rotor-Gene 6000 (Corbett Life Science) with the following PCR program: 50° C., 2 min; denaturation at 95° C., 10 min; and 45 cycles of 95° C., 15 sec; 60° C., 60 sec. Quantification was calculated with an external calibration curve using BKV plasmid constructs.

RPTEC primary cells = test: Cytotoxicity / cell growth by LDH activity in RPTEC primary cells; format: cell-based, human
Method: as §1
(§6) Cytotoxicity was analyzed by two colorimetric assays using the “Cytotoxicity Detection Kit (LDH)” and “Cell proliferation ELISA, BrdU” (Roche Diagnostics, Meylan, France).
(§7) The quantity of LDH was measured in cell culture supernatants and cells from every wells used for the quantification of virus replication including infected and non-infected wells and in presence or not of gemcitabine at the end of the test period according to the manufacturer's protocol. Absorbance at 492 nm (sample) and at 620 nm (background) was recorded 30 min after addition of the reaction mixture. Medium alone served as blank. Measure of LDH activity in culture supernatants was used to monitoring cell lysis and the activity in cell lysates to monitoring cell viability and mass at 72 and 120 h p.i

VP-1 = test: Immunofluorescence of VP-1 expression in infected RPTEC cells; format: cell-based, BK virus; details: 5 days of treatment
Method: (§8) For each assay, one cell aliquot containing 2×10^6 cells was thawed and cells were cultured for six days in one 75 cm^2 culture flask. Cells were then trypsinized, washed, resuspended and seeded at 5×10^4 cells/well in 1 ml medium in flat bottom 24-well collagen-coated microplates. After 48 h incubation, medium was replaced with fresh REBM base medium without grown factors and supplemented with inactivated fetal bovine serum (FBS Brazilian origin, Lonza) and penicillin-streptomycin 10000 U/μg to a final concentration of 2% and 1% respectively. 48 h later, cells at 95% confluence were infected with 1×10^9 genomes per well. After 4 h incubation (37° C., 5% CO2), medium was removed and replaced with 1 ml of fresh medium without grown factors after two washes with and without gemcitabine or cidofovir at the indicated concentrations. 72 h later, at day 3 of treatment, supernatants were harvested and frozen at −80° C. and medium was replaced with fresh medium without grown factors and with the indicated concentrations of gemcitabine or cidofovir. After 48 h incubation, at day 5 of treatment, cell culture supernatants were harvested and frozen at −80° C. […]

BKV (Dunlop) = test: BKV replication in Vero cell line, extracellular BKV DNA load by qPCR; format: cell-based, BK virus; details: Vero cells
Method: (§9) For each assay, one cell aliquot was thawed and cells cultured for three days in one 25 cm^2 culture flask. Cells were then trypsinized, washed, resuspended and seeded at 1×10^4 cells/well in […] in flat bottom 96-well microplates. After 24 h incubation, cells at 75% confluence were infected with 1×10^9 genomes per well in BK medium (199 medium with 2% FBS, 2% HEPES, 1% penicillin-streptomycin 10000 U/μg final concentration). After 4 h incubation (37° C., 5% CO2), medium was removed and replaced with 200 μL of fresh BK medium after four washes. 72 h later, medium was replaced with fresh BK medium with or without gemcitabine at the indicated final concentrations. After 48 h incubation, cell culture supernatants were harvested and frozen at −80° C.
as §2, §3, §4, §5

T antigen = test: Immunofluorescence of T antigen expression in infected RPTEC cells; format: cell-based, BK virus; details: 5 days of treatment
Method: as §8

Vero cell line = format: cell-based, Cercopithecus aethiops; details: Vero cell culture system
Method: as §9, §6
as §7, with “Measure of LDH activity in culture supernatants was used to monitoring cell lysis and the activity in cell lysates to monitoring cell viability and mass at 72 and 120 h p.i” left out

| Compound | concentration range repressing BKV replication (BKV (Dunlop strain); RPTEC, same conditions as gemcitabine) | IC50 (BKV (Dunlop strain); Betapolyomavirus hominis, RPTEC, BKV Dunlop, read-out: IC50, inhibition of viral replication) [nM] | IC90 (BKV (Dunlop strain); Betapolyomavirus hominis, RPTEC, BKV Dunlop, read-out: IC90, inhibition of viral replication) [nM] | inhibitory effect on viral replication, 5 days versus 3 days of treatment (BKV (Dunlop strain); RPTEC) | concentrations repressing BKV replication (BKV (Dunlop strain); summary: two different cellular models, including primary renal epithelial cells) [nM] | toxicity (RPTEC primary cells) | effect on cellular growth (LDH) at higher concentrations (RPTEC primary cells; RPTEC, 50 nM range) | effect on cellular growth measured by the intracellular LDH activity (RPTEC primary cells; infected RPTEC, effective antiviral concentrations (up to 10 nM), day 5) | expression of the late capsid protein VP-1 (VP-1) | IC50 (BKV (Dunlop); Betapolyomavirus hominis, 48 h, BKV Dunlop, two days of treatment, read-out: IC50, inhibition of viral replication) [nM] | IC90 (BKV (Dunlop); Betapolyomavirus hominis, 48 h, BKV Dunlop, two days of treatment, read-out: IC90, inhibition of viral replication) [nM] | inhibition of viral replication (BKV (Dunlop); concentration as low as 10 nM, in two days) | expression of the early protein antigen T (T antigen) | IC50 specificity index (Vero cell line) |
| --- | --- | --- | --- | --- | --- | --- | --- | --- | --- | --- | --- | --- | --- | --- |
| Nc1ccn(C[C@@H](CO)OCP(=O)(O)O)c(=O)n1 [cidofovir] | μM range | – | – | – | – | – | – | – | – | – | – | – | – | – |
| Nc1ccn(C2OC(CO)C(O)C2(F)F)c(=O)n1 (centres unmarked) [gemcitabine, 4-amino-1-[3,3-difluoro-4-hydroxy-5-(hydroxymethyl)tetrahydrofuran-2-yl]-1H-pyrimidin-2-one] | – | ~10 | ~50 | higher after 5 days than after 3 days | ~10 | no toxicity was observed | seemed to slow down | could suppress the inhibitory effect of viral infection on the cellular growth | inhibited | 1.5 to 2 | 2.5 to 5 | totally inhibited | inhibited | ≥ 10 |
